Measurements reported in article PMC3760131 (Acta Crystallographica Section D: Biological Crystallography, 2013).
Where a SMILES comes first, the peptide text is derived from it.

B1: XIAP BIR2(152–236;C202A,C213G) (domain or fragment, human)
chain: GTIYPRNPAMYSEEARLKSFQNWPDYAHLTPRELASAGLYYTGIGDQVQCFACGGKLKNWEPGDRAWSEHRRHFPNCFFVLGRNLN
notes: printed as hBIR2; Two molecules (A and B) in the crystal; also called hBIR2(152–236;C202A,C213G); BIR2 domain of XIAP; source: E. coli Rosetta2(DE3)pLysS, purified (Ni-NTA, TEV cleavage, Superdex 75); not shown: His6, N-terminal, cleaved

Target: T1, XIAP BIR2 (Homo sapiens, UniProt P98170)
T1 construct: 6×histidine-tagged BIR2 (amino acids 124–240) or BIR3 (amino acids 241–356) domain of the XIAP protein
T1 sequence (P98170 124-240): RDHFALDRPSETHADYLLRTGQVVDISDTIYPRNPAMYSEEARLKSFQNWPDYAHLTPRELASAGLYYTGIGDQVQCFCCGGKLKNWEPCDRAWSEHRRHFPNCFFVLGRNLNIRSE
Assay: BIR2 TR-FRET assay (displacement of AVPI-derived peptide)
Format: binding
Details: not given
Experimental: (§1) Time-resolved fluorescence resonance energy transfer (TR-FRET) signals were measured 1 h later at room temperature. Compound potency was assessed at ten serially diluted concentrations. The percentage of inhibition at each concentration was determined to generate an IC50 value for each compound.

Row | Molecule | Ki [µM]
1 | CC[C@H](C)[C@H](NC(=O)[C@H](C)N)C(=O)N[C@@H](C)C(=O)N[C@H](C(=O)O)C(C)C [AIAV] (H-AIAV-OH) | 1.87

Same assay, conditions: FRET-based displacement of AVPI-derived peptide from 6xHis BIR2 (124-240); Ki from IC50 by Cheng-Prusoff; read-out: BIR2 K i

Row | Molecule | Ki [µM]
2 | CC[C@H](C)[C@H](NC(=O)[C@@H]1CCCN1C(=O)[C@@H](NC(=O)[C@H](C)N)[C@@H](C)CC)C(=O)O [AIPI] (H-AIPI-OH) | 3.11
3 | CC[C@H](C)[C@H](NC(=O)[C@H](CCCNC(=N)N)NC(=O)[C@H](CCSC)NC(=O)[C@H](C)N)C(=O)O [AMRI] (H-AMRI-OH) | 3.52
4 | C[C@H](N)C(=O)N[C@@H](CCCNC(=N)N)C(=O)N1CCC[C@H]1C(=O)N[C@@H](CCCNC(=N)N)C(=O)O [ARPR] (H-ARPR-OH) | > 53
5 | CC[C@H](C)[C@H](NC(=O)[C@@H]1CCCN1C(=O)[C@H](CCSC)NC(=O)[C@@H](N)CO)C(=O)O [SMPI] (H-SMPI-OH) | 34
6 | CC(C)[C@H](NC(=O)[C@@H](NC(=O)[C@@H](NC(=O)[C@H](C)N)C(C)C)C(C)C)C(=O)O [AVVV] (H-AVVV-OH) | 2.54
7 | CSCC[C@H](NC(=O)[C@H](C)N)C(=O)N[C@@H](CCCNC(=N)N)C(=O)N[C@H](C(=O)O)C(C)C [AMRV] (H-AMRV-OH) | 2.41
8 | C[C@H](N)C(=O)N[C@H](C(=O)N[C@@H](C)C(=O)N[C@@H](C)C(=O)O)[C@@H](C)O [ATAA] (H-ATAA-OH) | 1.7
9 | CSCC[C@H](NC(=O)[C@@H](N)CO)C(=O)N[C@@H](CCCNC(=N)N)C(=O)N[C@H](C(=O)O)C(C)C [SMRV] (H-SMRV-OH) | 12.3
10 | CC(C)[C@H](NC(=O)[C@H](C)NC(=O)[C@@H](NC(=O)[C@H](C)N)[C@@H](C)O)C(=O)O [ATAV] (H-ATAV-OH) | 2.17
11 | CC(C)[C@H](NC(=O)[C@H](C)NC(=O)[C@@H](NC(=O)[C@H](C)N)C(C)C)C(=O)O [AVAV] (H-AVAV-OH) | 1.87

Target: T2, XIAP BIR3 (Homo sapiens, UniProt P98170)
T2 construct: 6×histidine-tagged BIR2 (amino acids 124–240) or BIR3 (amino acids 241–356) domain of the XIAP protein
T2 sequence (P98170 241-356): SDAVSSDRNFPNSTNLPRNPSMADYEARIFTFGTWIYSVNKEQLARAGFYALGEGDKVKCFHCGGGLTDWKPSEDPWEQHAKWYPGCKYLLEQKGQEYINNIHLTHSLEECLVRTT
Assay: BIR3 TR-FRET assay (displacement of AVPI-derived peptide)
Format: binding
Details: not given
Experimental: as §1

Row | Molecule | Ki [µM]
12 | CC[C@H](C)[C@H](NC(=O)[C@H](C)N)C(=O)N[C@@H](C)C(=O)N[C@H](C(=O)O)C(C)C [AIAV] (H-AIAV-OH) | 28.2

Same assay, conditions: FRET-based displacement of AVPI-derived peptide from 6xHis BIR3 (241-356); Ki from IC50 by Cheng-Prusoff; read-out: BIR3 K i

Row | Molecule | Ki [µM]
13 | CC[C@H](C)[C@H](NC(=O)[C@@H]1CCCN1C(=O)[C@@H](NC(=O)[C@H](C)N)[C@@H](C)CC)C(=O)O [AIPI] (H-AIPI-OH) | 0.08
14 | CC[C@H](C)[C@H](NC(=O)[C@H](CCCNC(=N)N)NC(=O)[C@H](CCSC)NC(=O)[C@H](C)N)C(=O)O [AMRI] (H-AMRI-OH) | 5.2
15 | CC[C@H](C)[C@H](NC(=O)[C@@H]1CCCN1C(=O)[C@H](CCSC)NC(=O)[C@@H](N)CO)C(=O)O [SMPI] (H-SMPI-OH) | 12.5
16 | CSCC[C@H](NC(=O)[C@H](C)N)C(=O)N[C@@H](CCCNC(=N)N)C(=O)N[C@H](C(=O)O)C(C)C [AMRV] (H-AMRV-OH) | 32.9
17 | C[C@H](N)C(=O)N[C@H](C(=O)N[C@@H](C)C(=O)N[C@@H](C)C(=O)O)[C@@H](C)O [ATAA] (H-ATAA-OH) | > 47
18 | CSCC[C@H](NC(=O)[C@@H](N)CO)C(=O)N[C@@H](CCCNC(=N)N)C(=O)N[C@H](C(=O)O)C(C)C [SMRV] (H-SMRV-OH) | > 47
19 | CC(C)[C@H](NC(=O)[C@H](C)NC(=O)[C@@H](NC(=O)[C@H](C)N)[C@@H](C)O)C(=O)O [ATAV] (H-ATAV-OH) | 32.3
20 | CC(C)[C@H](NC(=O)[C@H](C)NC(=O)[C@@H](NC(=O)[C@H](C)N)C(C)C)C(=O)O [AVAV] (H-AVAV-OH) | 26.1

Same assay, conditions: TR-FRET assay

Row | Molecule | activity against BIR3 (in words)
21 | C[C@H](N)C(=O)N[C@H](C(=O)N[C@@H](C)C(=O)N[C@@H](C)C(=O)O)[C@@H](C)O [ATAA] (H-ATAA-OH) | inactive

Target: the molecule itself
Assay: crystal structure; apo BIR2 crystals, sitting drop, 1.7-1.9 M ammonium sulfate, 125 mM bis-tris propane pH 7.0, room temperature; two molecules (A and B)
Details: not given

Row | Molecule | binding result
22 | B1 | binds

Target: 6×histidine-tagged BIR2 (amino acids 124–240) domain of the XIAP protein (UniProt P98170)
Sequence (P98170 124-240): as the sequence (P98170 124-240) above
Assay: AlphaScreen or HTRF; TR-FRET competition: 10 nM 6xHis BIR2 or BIR3 domain with 20 nM …-(epsilon-biotin)-OH; europium streptavidin (1.5 nM) and allophycocyanin anti-histidine antibody (15 nM); 50 mM Tris-HCl pH 7.5, 100 mM NaCl, 1 mM DTT, 0.1 mg/ml BSA; 45 min at 310 K, read 1 h later at room temperature; ten concentrations; Ki from IC50 by Cheng-Prusoff
Details: not given

Row | Molecule | Ki [µM]
23 | SMRV | 12.2
